Data set [1] concerns Salmonella typhimurium (TA98 and TA100). The experiment in a line: Bacterial reverse mutation assay (6-well Ames screen). It is filed as cell-based. The note with it: TA98 and TA100, absence or presence of rat liver S-9 mix, maximum concentration 500 µg/well. On the procedure:
A Bacterial Reverse Mutation Assay (“Ames Test”) was performed to evaluate the mutagenic potential of a LATS inhibitor by its effects on one or more histidine-requiring strains of Salmonella typhimurium (TA98 and TA100.) in the absence and presence of a liver metabolizing system.
The 6-well plate Ames test is a miniaturized screening version of the original test using smaller volumes and test item amounts, see e.g. P.A. Escobar et al. (2013), Mut. Res. 752, 99-118. The highest concentration of 500 µg/well used in this 6-well Ames screen corresponds to about the top concentration of […] in the standard Ames test. Liver S-9 mix from male rats induced with Aroclor 1254 was added as a 5% S-9 mix to the test system. […] Standard vehicle used was DMSO.
The test article was regarded positive in this assay if this criterion is met, otherwise it was regarded as negative.

Data set [2] concerns human lymphoblastoid TK6 cells. Description: In vitro TK6 micronucleus assay. It is filed as cell-based. As to conditions: for Conclusion TK6 MNT screen result: 30+0 hour -S-9 up to limit of cytotoxicity, 3+27 hours +S-9 up to 1 mM. On the procedure:
An in vitro TK6 Micronucleus Assay was performed to evaluate the clastogenic and aneugenic potential of a LATS inhibitor by its effects on the frequency of micronuclei in cultured human lymphoblastoid TK6 cells treated for 30 hours with no recovery in the absence of an Aroclor-induced rat liver metabolizing system (S-9) (30+0 hour -S-9) and for 3 hours in the presence of S-9 with 27 hours of recovery (3+27 hours +S-9).
TK6 cells were cultured in HEPES-buffered RPMI 1640 medium with GlutaMAXTM-1 including 10% (v/v) heat inactivated foetal calf serum, 100 Units/mL/100 µg/mL penicillin / streptomycin. Liver S-9 mix from male rats induced with Aroclor 1254 was added as a 10% S-9 mix to achieve a final concentration of 1% in the test system. […] Standard vehicle used was DMSO.
For valid data, the test item was considered to induce clastogenic and/or aneugenic events if: • A statistically significant increase in the frequency of micronucleated mononucleate (MNMON) cells at one or more concentrations was observed • An incidence of MNMON cells at such a concentration exceeded the normal range in both replicate cultures was observed • A concentration-related increase in the proportion of MNMON cells was observed (positive trend test).
The test item was considered positive in this assay if all of the above criteria were met. The test item was considered negative in this assay if none of the above criteria were met.

Where [3] appears, read: +S-9, 3+27 hours, 337.0 µg/mL (approximately 1 mM).
Setting [4] is: +S-9, any concentration up to 337.0 µg/mL.
Setting [5] is: -S-9, any concentration up to 40.00 µg/mL.

The structures appear in SMILES notation. Entries after “also recorded” stand apart in the source; their conditions may differ.

With `Cc1n[nH]cc1-c1nc(NC(C)(C)CCN(C)C)c2ccncc2n1` [Example 6, N^1,N^1,3-trimethyl-N^3-(2-(3-methyl-1H-pyrazol-4-yl)pyrido[3,4-d]pyrimidin-4-yl)butane-1,3-diamine], the AMES screen result in data set [1] was “did not show evidence of a mutagenic potential; also recorded: “negative””. In addition, the “Conclusion TK6 MNT screen result” value in data set [2] is listed as “did not induce micronuclei; also recorded: “negative””. Further, the cytotoxicity in data set [2] (setting [3]) was 33%; in data set [2] (-S-9, 30 hours, 40.00 µg/mL), 57%. Also, the “increases in micronucleated mononucleate (MNMON) cells” value in data set [2] (setting [4]) and in data set [2] (setting [5]) was “No statistically significant (p≤0.05) increases” in each case.
`CN(C)CCC(C)(C)Nc1nc(-c2ccncc2)nc2cnccc12` [Example 5, Dimethyl(3-methyl-3-{[2-(pyridin-4-yl)pyrido[3,4-d]pyrimidin-4-yl]amino}butyl)amine]: in data set [1], the AMES screen result was “did not show evidence of a mutagenic potential; also recorded: “negative””. In addition, the “Conclusion TK6 MNT screen result” value was ““negative”” in data set [2] (listed as dimethyl(3-methyl-3-{[2-(pyridin-4-yl)pyrido[3,4-d]pyrimid in-4-yl]amino}butyl)a) and “did not induce micronuclei” in data set [2] (listed as dimethyl(3-methyl-3-{[2-(pyridin-4-yl)pyrido[3,4-d]pyrimidin-4-yl]amino}butyl)am). For the same compound, the cytotoxicity came out at 39% in data set [2] (setting [3]) and 58% in data set [2] (-S-9, 30 hours, 40.00 µg/mL). The “increases in micronucleated mononucleate (MNMON) cells” value in data set [2] (setting [4]) and in data set [2] (setting [5]) was “No statistically significant (p≤0.05) increases” each time.

The values are drawn from patent US20230348852A1, “METHODS AND COMPOSITIONS FOR OCULAR CELL THERAPY” (NOVARTIS AG, priority 2020, published 2023).
